Laboratory results as given in US9216991B2 (Ares Trading S.A., priority 2012, dated 2015).
Structures can show the parent of a compound that is named as a salt.

Target: T1, IRAK4 (Homo sapiens, UniProt Q9NWZ3)
T1 construct: His (N); TEV cleavage site (N)
T1 sequence (Q9NWZ3 1-460): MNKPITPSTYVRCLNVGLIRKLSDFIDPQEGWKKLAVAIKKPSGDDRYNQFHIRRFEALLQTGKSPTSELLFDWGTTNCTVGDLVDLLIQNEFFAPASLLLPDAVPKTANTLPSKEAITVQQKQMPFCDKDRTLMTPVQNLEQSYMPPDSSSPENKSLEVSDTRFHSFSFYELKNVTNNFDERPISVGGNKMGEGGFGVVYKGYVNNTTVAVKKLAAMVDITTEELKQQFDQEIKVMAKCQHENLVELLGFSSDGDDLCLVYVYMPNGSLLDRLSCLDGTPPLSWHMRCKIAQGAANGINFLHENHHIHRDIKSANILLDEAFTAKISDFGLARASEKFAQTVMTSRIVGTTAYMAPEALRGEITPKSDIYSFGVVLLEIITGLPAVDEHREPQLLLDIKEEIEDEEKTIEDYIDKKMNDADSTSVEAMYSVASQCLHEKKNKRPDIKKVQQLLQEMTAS
Experiment: IRAK4 Enzymatic Assay
Format: biochemical
Conditions: His-TEV-IRAK4 20 ng/well, ATP 2 μM, STK1-biotin peptide 300 nM, 3 hours at 30° C., FlashPlate radioactivity
Outline: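 Recombinant His-TEV-tagged IRAK4 (20 ng/well) phosphorylates biotinylated STK1 peptide (300 nM) with 2 μM ATP plus [^33P]ATP, 3 h at 30 °C in pH 7.0 HEPES buffer with MgCl2 and MnCl2; compounds tested 20 μM to 1 nM. Reaction stopped with EDTA; incorporated radioactivity counted on streptavidin FlashPlates.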

| Compound | IC50 |
| --- | --- |
| Cc1cc(-c2cccc(-c3ncc(-c4cnn([C@H]5CC[C@H](O)CC5)c4)cn3)c2)cnn1 [Example 247, trans-4-(4-{2-[3-(6-Methyl-pyridazin-4-yl)-phenyl]-pyrimidin-5-yl}-pyrazol-1-yl)-cyclohexanol] | 100 to 1000 nM |
| Cn1cc(-c2cccc(-c3ncc(-c4cnn([C@H]5CC[C@H](N6CCOCC6=O)CC5)c4)cn3)c2)cn1 [Example 254, 4-[4-(4-{2-[3-(1-Methyl-1H-pyrazol-4-yl)-phenyl]-pyrimidin-5-yl}-pyrazol-1-yl)-cyclohexyl]-morpholin-3-one] | < 100 nM |
| Cn1cc(-c2cccc(-c3ncc(-c4cnn([C@H]5CC[C@H](N6CCOC6=O)CC5)c4)cn3)c2)cn1 [Example 255, 3-[4-(4-{2-[3-(1-Methyl-1H-pyrazol-4-yl)-phenyl]-pyrimidin-5-yl}-pyrazol-1-yl)-cyclohexyl]-oxazolidin-2-one] | 100 to 1000 nM |
| Cc1cc(-c2cccc(-c3ncc(-c4cnn([C@H]5CC[C@H](CO)CC5)c4)cn3)c2)cnn1 [Example 256, Trans-[4-(4-{2-[3-(6-Methyl-pyridazin-4-yl)-phenyl]-pyrimidin-5-yl}-pyrazol-1-yl)-cyclohexyl]-methanol] | < 100 nM |
| CN1C[C@]2(CC[C@H](n3cc(-c4cnc(-c5cccc(-c6cnn(C)c6)c5)nc4)cn3)CC2)CC1=O [Example 260, trans-2-Methyl-8-(4-{2-[3-(1-methyl-1H-pyrazol-4-yl)-phenyl]-pyrimidin-5-yl}-pyrazol-1-yl)-2-aza-spiro[4.5]decan-3-one] | < 100 nM |
| Cn1cc(-c2cccc(-c3ncc(-c4cnn(C5CCC(C(=O)N6CCO[C@H](CO)C6)CC5)c4)cn3)c2)cn1 (stereo partly drawn) [Example 261, ((S)-2-Hydroxymethyl-morpholin-4-yl)-[4-((S)-4-{2-[3-(1-methyl-1H-pyrazol-4-yl)-phenyl]-pyrimidin-5-yl}-pyrazol-1-yl)-cyclohexyl]-methanone] | < 100 nM |
| CN1C[C@]2(CC[C@@H](n3cc(-c4cnc(-c5cccc(-c6cnn(C)c6)c5)nc4)cn3)CC2)CC1=O [Example 262, cis-2-Methyl-8-(4-{2-[3-(1-methyl-1H-pyrazol-4-yl)-phenyl]-pyrimidin-5-yl}-pyrazol-1-yl)-2-aza-spiro[4.5]decan-3-one] | < 100 nM |
| CC(=O)N1CCC(n2cc(-c3cnc(-c4cccc(-c5cnn(C)c5)c4)nc3)cn2)C(F)C1 (stereo not drawn) [Example 263, Cis-1-[3-Fluoro-4-(4-{2-[3-(1-methyl-1H-pyrazol-4-yl)-phenyl]-pyrimidin-5-yl}-pyrazol-1-yl)-piperidin-1-yl]-ethanone] | < 100 nM |
| Cn1cc(-c2cccc(-c3ncc(-c4cnn(C5CCC(C(=O)N6CCO[C@@H](CO)C6)CC5)c4)cn3)c2)cn1 (stereo partly drawn) [Example 266, ((R)-2-Hydroxymethyl-morpholin-4-yl)-[4-((S)-4-{2-[3-(1-methyl-1H-pyrazol-4-yl)-phenyl]-pyrimidin-5-yl}-pyrazol-1-yl)-cyclohexyl]-methanone] | < 100 nM |
| Cn1cc(-c2cccc(-c3ncc(-c4cnn(C5CCOC6(CCOCC6)C5)c4)cn3)c2)cn1 (centres unmarked) [Example 267, 5-[1-(1,9-Dioxa-spiro[5.5]undec-4-yl)-1H-pyrazol-4-yl]-2-[3-(1-methyl-1H-pyrazol-4-yl)-phenyl]-pyrimidine] | < 100 nM |
| Cn1cc(-c2cccc(-c3ncc(-c4cnn(C5CCN(C6CCCOC6)CC5)c4)cn3)c2)cn1 (centres unmarked) [Example 270, 2-[3-(1-Methyl-1H-pyrazol-4-yl)-phenyl]-5-{1-[1-(tetrahydro-pyran-3-yl)-piperidin-4-yl]-1H-pyrazol-4-yl}-pyrimidine] | < 100 nM |
| Cn1cc(-c2cccc(-c3ncc(-c4cnn(C5CCOCC5CN5CCOCC5)c4)cn3)c2)cn1 (centres unmarked) [Example 271, 4-[4-(4-{2-[3-(1-Methyl-1H-pyrazol-4-yl)-phenyl]-pyrimidin-5-yl}-pyrazol-1-yl)-tetrahydro-pyran-3-ylmethyl]-morpholine] | 1000 to 5000 nM |
| Cn1cc(-c2cccc(-c3ncc(-c4cnn(C5C6COCC5CC(CO)C6)c4)cn3)c2)cn1 (centres unmarked) [Example 276, [9-(4-{2-[3-(1-Methyl-1H-pyrazol-4-yl)-phenyl]-pyrimidin-5-yl}-pyrazol-1-yl)-3-oxa-bicyclo[3.3.1]non-7-yl]-methanol] | 100 to 1000 nM |
| CN1CC2CC1CN2C(=O)[C@H]1CC[C@H](n2cc(-c3cnc(-c4cccc(-c5cnn(C)c5)c4)nc3)cn2)CC1 (stereo partly drawn) [Example 278, (5-Methyl-2,5-diaza-bicyclo[2.2.1]hept-2-yl)-trans-[4-(-4-{2-[3-(1-methyl-1H-pyrazol-4-yl)-phenyl]-pyrimidin-5-yl}-pyrazol-1-yl)-cyclohexyl]-methanone hydrobromide] | < 100 nM |
| CC(=O)N1CCC(n2cc(-c3cnc(-c4cccc(-c5cnn(C)c5)c4)nc3)cn2)C(F)(F)C1 (centres unmarked) [Example 284, 1-[3,3-Difluoro-4-(4-{2-[3-(1-methyl-1H-pyrazol-4-yl)-phenyl]-pyrimidin-5-yl}-pyrazol-1-yl)-piperidin-1-yl]-ethanone] | < 100 nM |
| Cn1cc(-c2cccc(-c3ncc(-c4cnn([C@H]5CC[C@]6(CCC(=O)N6C)CC5)c4)cn3)c2)cn1 [Example 285, Cis-1-Methyl-8-(4-{2-[3-(1-methyl-1H-pyrazol-4-yl)-phenyl]-pyrimidin-5-yl}-pyrazol-1-yl)-1-aza-spiro[4.5]decan-2-one] | < 100 nM |
| Cc1nn(C2CCC(O)CC2)cc1-c1cnc(-c2cccc(-c3cnn(C)c3)c2)nc1 (centres unmarked) [Example 291, 4-(3-Methyl-4-{2-[3-(1-methyl-1H-pyrazol-4-yl)-phenyl]-pyrimidin-5-yl}-pyrazol-1-yl)-cyclohexanol] | 100 to 1000 nM |

The next lines start with the values.

| IC50 | Compound |
| --- | --- |
| < 100 nM | C[C@H]1C[C@@H](n2cc(-c3cnc(-c4cccc(-c5cnn(C)c5)c4)nc3)cn2)CCN1 [Example 246, 5-[1-((2S,4S)-2-Methyl-piperidin-4-yl)-1H-pyrazol-4-yl]-2-[3-(1-methyl-1H-pyrazol-4-yl)-phenyl]-pyrimidine] |
| < 100 nM | CC(=O)N1CC[C@H](n2cc(-c3cnc(-c4cccc(-c5cnn(C)c5)c4)nc3)cn2)C[C@@H]1C [Example 248, 1-[(2S,4S)-2-Methyl-4-(4-{2-[3-(1-methyl-1H-pyrazol-4-yl)-phenyl]-pyrimidin-5-yl}-pyrazol-1-yl)-piperidin-1-yl]-ethanone] |
| 100 to 1000 nM | CC(=O)N1CC[C@@H](n2cc(-c3cnc(-c4cccc(-c5cnn(C)c5)c4)nc3)cn2)C[C@H]1C [Example 249, 1-[(2R,4R)-2-Methyl-4-(4-{2-[3-(1-methyl-1H-pyrazol-4-yl)-phenyl]-pyrimidin-5-yl}-pyrazol-1-yl)-piperidin-1-yl]-ethanone] |
| < 100 nM | Cn1cc(-c2cccc(-c3ncc(-c4cnn([C@H]5CC[C@]6(CCC(=O)N6)CC5)c4)cn3)c2)cn1 [Example 250, cis-8-(4-{2-[3-(1-Methyl-1H-pyrazol-4-yl)-phenyl]-pyrimidin-5-yl}-pyrazol-1-yl)-1-aza-spiro[4.5]decan-2-one] |
| < 100 nM | CO[C@H]1CC[C@@H](n2cc(-c3cnc(-c4cccc(-c5cnn(C)c5)c4)nc3)cn2)CC1 [Example 252, Cis-5-[1-(4-Methoxy-cyclohexyl)-1H-pyrazol-4-yl]-2-[3-(1-methyl-1H-pyrazol-4-yl)-phenyl]-pyrimidine] |
| < 100 nM | CO[C@H]1CC[C@H](n2cc(-c3cnc(-c4cccc(-c5cnn(C)c5)c4)nc3)cn2)CC1 [Example 253, trans-5-[1-(4-Methoxy-cyclohexyl)-1H-pyrazol-4-yl]-2-[3-(1-methyl-1H-pyrazol-4-yl)-phenyl]-pyrimidine] |
| < 100 nM | Cn1cc(-c2cccc(-c3ncc(-c4cnn([C@H]5CC[C@](O)(CO)CC5)c4)cn3)c2)cn1 [Example 258, Cis-1-Hydroxymethyl-4-(4-{2-[3-(1-methyl-1H-pyrazol-4-yl)-phenyl]-pyrimidin-5-yl}-pyrazol-1-yl)-cyclohexanol] |
| 100 to 1000 nM | Cn1cc(-c2cccc(-c3ncc(-c4cnn(C5CCNCC5(F)F)c4)cn3)c2)cn1 (centres unmarked) [Example 259, 5-[1-(3,3-Difluoro-piperidin-4-yl)-1H-pyrazol-4-yl]-2-[3-(1-methyl-1H-pyrazol-4-yl)-phenyl]-pyrimidine] |
| < 100 nM | Cn1cc(-c2cccc(-c3ncc(-c4cnn([C@@H]5CCCN(S(C)(=O)=O)C5)c4)cn3)c2)cn1 [Example 268, 5-[(R)-1-(1-Methanesulfonyl-piperidin-3-yl)-1H-pyrazol-4-yl]-2-[3-(1-methyl-1H-pyrazol-4-yl)-phenyl]-pyrimidine] |
| < 100 nM | CC(=O)N1CCC[C@@H](n2cc(-c3cnc(-c4cccc(-c5cnn(C)c5)c4)nc3)cn2)C1 [Example 269, 1-[3-((R)-4-{2-[3-(1-Methyl-1H-pyrazol-4-yl)-phenyl]-pyrimidin-5-yl}-pyrazol-1-yl)-piperidin-1-yl]-ethanone] |
| < 100 nM | CC1COCCC1N1CCC(n2cc(-c3cnc(-c4cccc(-c5cnn(C)c5)c4)nc3)cn2)CC1 (centres unmarked) [Example 275, 2-[3-(1-Methyl-1H-pyrazol-4-yl)-phenyl]-5-{1-[1-(3-methyl-tetrahydro-pyran-4-yl)-piperidin-4-yl]-1H-pyrazol-4-yl}-pyrimidine] |
| < 100 nM | Cn1cc(-c2cccc(-c3ncc(-c4cnn([C@H]5CC[C@H](NCCO)CC5)c4)cn3)c2)cn1 [Example 289, 2-trans-[4-(4-{2-[3-(1-Methyl-1H-pyrazol-4-yl)-phenyl]-pyrimidin-5-yl}-pyrazol-1-yl)-cyclohexylamino]-ethano] |
